Results from patent publication US9604975B2, “Indolyl-pyridone derivatives having checkpoint kinase 1 inhibitory activity” (Vernalis (R&D) Ltd., priority 2009, dated 2017).

What follows are molecules tested against T1, CHK1 (Homo sapiens, UniProt O14757) (assay: CHK1 Enzyme Assay (phosphorylation of Chktide peptide, 33P-ATP filter assay)). Conditions: 12.5 nM His-CHK1, 0.01 mM ATP, 40 minutes at 30° C.; read-out: CHK1 Enzyme Activity (IC50 range).
T1 construct: His; purchased Invitrogen
T1 sequence (O14757 1-476): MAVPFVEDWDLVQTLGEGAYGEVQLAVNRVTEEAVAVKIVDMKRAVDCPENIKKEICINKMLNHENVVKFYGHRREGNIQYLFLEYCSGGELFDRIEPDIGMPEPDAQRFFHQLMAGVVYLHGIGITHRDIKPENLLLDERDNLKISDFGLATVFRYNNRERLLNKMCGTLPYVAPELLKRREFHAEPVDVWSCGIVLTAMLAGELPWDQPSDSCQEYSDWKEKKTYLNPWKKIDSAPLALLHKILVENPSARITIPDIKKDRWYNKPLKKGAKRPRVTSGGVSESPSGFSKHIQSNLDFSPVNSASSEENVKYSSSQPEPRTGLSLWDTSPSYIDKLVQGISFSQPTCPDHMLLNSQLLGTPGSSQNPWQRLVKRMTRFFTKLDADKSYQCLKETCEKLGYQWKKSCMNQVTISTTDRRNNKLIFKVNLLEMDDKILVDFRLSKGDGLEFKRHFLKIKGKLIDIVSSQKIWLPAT
Assay type: biochemical
Experimental: Assays for the CHK1 kinase activity were carried out by monitoring the phosphorylation of a synthetic peptide Chktide with the amino acid sequence, […]. The assay mixture containing the inhibitor and CHK1 enzyme was mixed together in a microtiter plate in a final volume of 50 μl and incubated for 40 minutes at 30° C.
The assay mixture contained 0.01 mM unlabeled ATP, 0.5 μCi ^33P-γ-ATP, 14.8 μM Chktide, 0.1 mg/mL BSA, 50 mM Hepes-NaOH pH 7.5 and 12.5 nM His-CHK1 (Invitrogen) enzyme. The reaction was stopped by adding 50 μL of 50 mM phosphoric acid. 90 μL of the mixture was transferred to a pre-wetted 96-well multi-screen MAPHNOB filtration plate (Millipore) and filtered on a vacuum manifold. The filter plate was washed with 3 successive additions of 200 μl 50 mM phosphoric acid and then with 100 μL methanol. The filtration plate was dried for 10 min at 65° C., scintillant added and phosphorylated peptide quantified in a scintillation counter (Trilux, PerkinElmer).

IC50 | SMILES
< 100 nM | O=C(Nc1c[nH]c(=O)c(-c2cc3cc(CN4CCCC4)ccc3[nH]2)c1)c1cnn(Cc2ccc(Cl)cc2)c1 [Example 55, 1-(4-Chloro-benzyl)-1H-pyrazole-4-carboxylic acid [6-oxo-5-(5-pyrrolidin-1-ylmethyl-1H-indol-2-yl)-1,6-dihydro-pyridin-3-yl]-amide]
< 100 nM | CCN(CCO)Cc1ccc2[nH]c(-c3cc(NC(=O)c4cnn(Cc5ccccc5)c4)c[nH]c3=O)cc2c1 [Example 56, 1-Benzyl-1H-pyrazole-4-carboxylic acid [5-(5-{[ethyl-(2-hydroxy-ethyl)-amino]-methyl}-1H-indol-2-yl)-6-oxo-1,6-dihydro-pyridin-3-yl]-amide]
< 100 nM | O=C(Nc1c[nH]c(=O)c(-c2cc3cc(CN4CCCC(F)C4)ccc3[nH]2)c1)c1cnn(Cc2ccccc2)c1 (stereo not shown) [Example 57, 1-Benzyl-1H-pyrazole-4-carboxylic acid {5-[5-(3-fluoro-piperidin-1-ylmethyl)-1H-indol-2-yl]-6-oxo-1,6-dihydro-pyridin-3-yl}-amide]
< 100 nM | CN1CCN(Cc2ccc3[nH]c(-c4cc(NC(=O)c5cnn(Cc6ccccc6)c5)c[nH]c4=O)cc3c2)CC1 [Example 58, 1-Benzyl-1H-pyrazole-4-carboxylic acid {5-[5-(4-methyl-piperazin-1-ylmethyl)-1H-indol-2-yl]-6-oxo-1,6-dihydro-pyridin-31}-amide]
< 100 nM | Cc1ccc(Cn2cc(C(=O)Nc3c[nH]c(=O)c(-c4cc5cc(CN6CCN(C)CC6)ccc5[nH]4)c3)cn2)cc1 [Example 59, 1-(4-Methyl-benzyl)-1H-pyrazole-4-carboxylic acid {5-[5-(4-methyl-piperazin-1-ylmethyl)-1H-indol-2-yl]-6-oxo-1,6-dihydro-pyridin-3-yl}-amide]
< 100 nM | O=C(Nc1c[nH]c(=O)c(-c2cc3cc(CN4CCC(O)CC4)ccc3[nH]2)c1)c1cnn(Cc2ccccc2)c1 [Example 60, 1-Benzyl-1H-pyrazole-4-carboxylic acid {5-[5-(4-hydroxy-piperidin-1-ylmethyl)-1H-indol-2-yl]-6-oxo-1,6-dihydro-pyridin-3-yl}-amide]
< 100 nM | O=C(Nc1c[nH]c(=O)c(-c2cc3cc(CNCCO)ccc3[nH]2)c1)c1cnn(Cc2ccccc2)c1 [Example 61]
< 100 nM | Cc1ccc(Cn2cc(C(=O)Nc3c[nH]c(=O)c(-c4cc5cc(CN6CCN(CCO)CC6)ccc5[nH]4)c3)cn2)cc1 [Example 62, 1-(4-Methyl-benzyl)-1H-pyrazole-4-carboxylic acid (5-{5-[4-(2-hydroxy-ethyl)-piperazin-1-ylmethyl]-1H-indol-2-yl}-6-oxo-1,6-dihydro-pyridin-3-yl)-amide]
< 100 nM | O=C(Nc1c[nH]c(=O)c(-c2cc3cc(CN4CCCC(F)C4)ccc3[nH]2)c1)c1cnn(Cc2ccc(Cl)cc2)c1 (stereo not shown) [Example 63, 1-(4-Chloro-benzyl)-1H-pyrazole-4-carboxylic acid {5-[5-(3-fluoro-piperidin-1-ylmethyl)-1H-indol-2-yl]-6-oxo-1,6-dihydro-pyridin-3-yl}-amide]
< 100 nM | O=C(Nc1c[nH]c(=O)c(-c2cc3cc(CN4CCC(F)(F)CC4)ccc3[nH]2)c1)c1cnn(Cc2ccccc2)c1 [Example 64, 1-Benzyl-1H-pyrazole-4-carboxylic acid {5-[5-(4,4-difluoro-piperidin-1-ylmethyl)-1H-indol-2-yl]-6-oxo-1,6-dihydro-pyridin-3-yl}-amide]
< 100 nM | O=C(Nc1c[nH]c(=O)c(-c2cc3cc(CN4CCN(CCO)CC4)ccc3[nH]2)c1)c1cnn(Cc2ccccc2)c1 [Example 65, 1-Benzyl-1H-pyrazole-4-carboxylic acid (5-{5-[4-(2-hydroxy-ethyl)-piperazin-1-ylmethyl]-1H-indol-2-yl}-6-oxo-1,6-dihydro-pyridin-3-yl)-amide]
< 100 nM | O=C(Nc1c[nH]c(=O)c(-c2cc3cc(CN4CCN(CCO)CC4)ccc3[nH]2)c1)c1cnn(Cc2ccc(Cl)cc2)c1 [Example 66, 1-(4-Chloro-benzyl)-1H-pyrazole-4-carboxylic acid (5-{5-[4-(2-hydroxy-ethyl)-piperazin-1-ylmethyl]-1H-indol-2-yl}-6-oxo-1,6-dihydro-pyridin-3-yl)-amide]
< 100 nM | O=C(Nc1c[nH]c(=O)c(-c2cc3cc(CN4CCOCC4)ccc3[nH]2)c1)c1cnn(Cc2ccc(Cl)cc2)c1 [Example 67, 1-(4-Chloro-benzyl)-1H-pyrazole-4-carboxylic acid [5-(5-morpholin-4-ylmethyl-1H-indol-2-yl)-6-oxo-1,6-dihydro-pyridin-3-yl]-amide]
< 100 nM | CS(=O)(=O)CCNCc1ccc2[nH]c(-c3cc(NC(=O)c4cnn(Cc5ccccc5)c4)c[nH]c3=O)cc2c1 [Example 68]
< 100 nM | CC1CN(Cc2ccc3[nH]c(-c4cc(NC(=O)c5cnn(Cc6ccccc6)c5)c[nH]c4=O)cc3c2)CC(C)O1 (stereo not shown) [Example 69, 1-Benzyl-1H-pyrazole-4-carboxylic acid {5-[5-(2,6-dimethyl-morpholin-4-ylmethyl)-1H-indol-2-yl]-6-oxo-1,6-dihydro-pyridin-3-yl}-amide]
< 100 nM | CC1CN(Cc2ccc3[nH]c(-c4cc(NC(=O)c5cnn(Cc6ccccc6)c5)c[nH]c4=O)cc3c2)CCN1C (stereo not shown) [Example 70, 1-Benzyl-1H-pyrazole-4-carboxylic acid {5-[5-(3,4-dimethyl-piperazin-1-ylmethyl)-1H-indol-2-yl]-6-oxo-1,6-dihydro-pyridin-3-yl}-amide]
< 100 nM | CC1CN(Cc2ccc3[nH]c(-c4cc(NC(=O)c5cnn(Cc6ccc(C(C)C)cc6)c5)c[nH]c4=O)cc3c2)CC(C)O1 (stereo not shown) [Example 72, 1-(4-isopropylbenzyl)-1H-pyrazole-4-carboxylic acid {5-[5-(2,6-dimethylmorpholin-4-ylmethyl)-1H-indol-2-yl)-6-oxo-1,6-dihydropyridin-3-yl}-amide]
< 100 nM | CC(C)c1ccc(Cn2cc(C(=O)Nc3c[nH]c(=O)c(-c4cc5cc(CN6CCC(F)CC6)ccc5[nH]4)c3)cn2)cc1 [Example 73, 1-(4-isopropylbenzyl)-1H-pyrazole-4-carboxylic acid {5-[5-(4-fluoropiperidin-1-ylmethyl)-1H-indol-2-yl)-6-oxo-1,6-dihydropyridin-3-yl}-amide]
< 100 nM | Cc1ccc(Cn2cc(C(=O)Nc3c[nH]c(=O)c(-c4cc5cc(CN6C[C@@H](C)O[C@@H](C)C6)ccc5[nH]4)c3)cn2)cc1 [Example 74, 1-(4-Methyl-benzyl)-1H-pyrazole-4-carboxylic acid {5-[5-(cis-2,6-dimethyl-morpholin-4-ylmethyl)-1H-indol-2-yl]-6-oxo-1,6-dihydro-pyridin-3-yl}-amide]
< 100 nM | CCN(CC)Cc1ccc2[nH]c(-c3cc(NC(=O)c4cnn(Cc5ccc(C)cc5)c4)c[nH]c3=O)cc2c1 [Example 75, 1-(4-Methyl-benzyl)-1H-pyrazole-4-carboxylic acid [5-(5-diethylaminomethyl-1H-indol-2-yl)-6-oxo-1,6-dihydro-pyridin-3-yl]-amide]
< 100 nM | C[C@@H]1CN(Cc2ccc3[nH]c(-c4cc(NC(=O)c5cnn(Cc6ccc(F)cc6)c5)c[nH]c4=O)cc3c2)C[C@H](C)O1 [Example 76, 1-(4-Fluoro-benzyl)-1H-pyrazole-4-carboxylic acid {5-[5-(cis-2,6-dimethyl-morpholin-4-ylmethyl)-1H-indol-2-yl]-6-oxo-1,6-dihydro-pyridin-3-yl}-amide]
< 100 nM | CN(Cc1ccc2[nH]c(-c3cc(NC(=O)c4cnn(Cc5ccccc5)c4)c[nH]c3=O)cc2c1)C1CCCCC1 [Example 77]
< 100 nM | COCCN(C)Cc1ccc2[nH]c(-c3cc(NC(=O)c4cnn(Cc5ccccc5)c4)c[nH]c3=O)cc2c1 [Example 79, 1-Benzyl-1H-pyrazole-4-carboxylic acid [5-(5-{1(2-methoxy-ethyl)-methyl-aminol-methyl}-1H-indol-2-yl)-6-oxo-1,6-dihydro-pyridin-3-yl]-amide]
< 100 nM | O=C(Nc1c[nH]c(=O)c(-c2cc3cc(CN4CCCCC4)ccc3[nH]2)c1)c1cnn(Cc2ccc(F)cc2)c1 [Example 80, 1-(4-Fluoro-benzyl)-1H-pyrazole-4-carboxylic acid [6-oxo-5-(5-piperidin-1-ylmethyl-1H-indol-2-yl)-1,6-dihydro-pyridin-3-yl]-amide]
< 100 nM | O=C(Nc1c[nH]c(=O)c(-c2cc3cc(CN4CCC(F)CC4)ccc3[nH]2)c1)c1cnn(Cc2ccc(F)cc2)c1 [Example 81, 1-(4-Fluoro-benzyl)-1H-pyrazole-4-carboxylic acid {5-[5-(4-fluoro-piperidin-1-ylmethyl)-1H-indol-2-yl]-6-oxo-1,6-dihydro-pyridin-3-yl}-amide]
